Literature values as cited in patent US20130315934A1, “Methods and Compositions for Assessing and Treating Cancer” (Yale University, priority 2010, published 2013).

Experiments:
PAK-4 = PAK-4 (Homo sapiens, UniProt O96013); settings: PAK family members
[1] = system: YULOVY melanoma cells possessing the S522I variant; settings: cell culture, YULOVY melanoma cells (ACK1 S522I variant)
[2] = system: YUHEF melanoma cells harboring ACK1-S212L; settings: cell culture
purified ACK1 = purified ACK1 (Homo sapiens, UniProt Q07912); settings: in vitro, purified enzyme
purified ACK1, sequence (Q07912 whole entry): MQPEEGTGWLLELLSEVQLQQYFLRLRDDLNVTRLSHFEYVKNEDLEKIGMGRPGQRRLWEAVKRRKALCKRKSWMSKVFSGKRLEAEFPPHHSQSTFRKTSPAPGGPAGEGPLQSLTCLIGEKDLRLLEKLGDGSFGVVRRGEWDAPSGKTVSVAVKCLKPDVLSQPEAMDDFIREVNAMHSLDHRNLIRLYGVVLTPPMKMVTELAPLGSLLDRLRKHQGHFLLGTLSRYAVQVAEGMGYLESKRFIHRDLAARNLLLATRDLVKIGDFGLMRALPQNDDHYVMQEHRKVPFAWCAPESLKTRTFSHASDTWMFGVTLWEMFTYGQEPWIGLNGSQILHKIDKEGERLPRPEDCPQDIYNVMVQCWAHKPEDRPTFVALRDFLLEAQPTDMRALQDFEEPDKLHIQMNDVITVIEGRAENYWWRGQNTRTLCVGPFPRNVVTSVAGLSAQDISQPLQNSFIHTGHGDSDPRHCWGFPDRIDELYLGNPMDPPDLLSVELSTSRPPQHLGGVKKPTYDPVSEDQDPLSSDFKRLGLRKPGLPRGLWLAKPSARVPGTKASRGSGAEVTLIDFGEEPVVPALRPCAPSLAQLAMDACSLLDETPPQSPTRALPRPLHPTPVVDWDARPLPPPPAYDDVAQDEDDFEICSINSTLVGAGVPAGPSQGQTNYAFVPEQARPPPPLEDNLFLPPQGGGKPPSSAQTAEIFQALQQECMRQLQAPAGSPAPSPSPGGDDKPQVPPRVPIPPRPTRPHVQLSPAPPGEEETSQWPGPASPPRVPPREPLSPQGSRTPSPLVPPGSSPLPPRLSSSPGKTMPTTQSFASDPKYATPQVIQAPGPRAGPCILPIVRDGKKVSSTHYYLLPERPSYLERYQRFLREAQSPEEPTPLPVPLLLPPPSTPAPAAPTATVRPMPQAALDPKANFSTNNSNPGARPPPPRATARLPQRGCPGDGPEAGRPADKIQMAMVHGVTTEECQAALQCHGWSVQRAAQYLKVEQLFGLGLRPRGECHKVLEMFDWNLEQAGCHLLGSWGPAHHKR

PAK-4, sequence (O96013 whole entry): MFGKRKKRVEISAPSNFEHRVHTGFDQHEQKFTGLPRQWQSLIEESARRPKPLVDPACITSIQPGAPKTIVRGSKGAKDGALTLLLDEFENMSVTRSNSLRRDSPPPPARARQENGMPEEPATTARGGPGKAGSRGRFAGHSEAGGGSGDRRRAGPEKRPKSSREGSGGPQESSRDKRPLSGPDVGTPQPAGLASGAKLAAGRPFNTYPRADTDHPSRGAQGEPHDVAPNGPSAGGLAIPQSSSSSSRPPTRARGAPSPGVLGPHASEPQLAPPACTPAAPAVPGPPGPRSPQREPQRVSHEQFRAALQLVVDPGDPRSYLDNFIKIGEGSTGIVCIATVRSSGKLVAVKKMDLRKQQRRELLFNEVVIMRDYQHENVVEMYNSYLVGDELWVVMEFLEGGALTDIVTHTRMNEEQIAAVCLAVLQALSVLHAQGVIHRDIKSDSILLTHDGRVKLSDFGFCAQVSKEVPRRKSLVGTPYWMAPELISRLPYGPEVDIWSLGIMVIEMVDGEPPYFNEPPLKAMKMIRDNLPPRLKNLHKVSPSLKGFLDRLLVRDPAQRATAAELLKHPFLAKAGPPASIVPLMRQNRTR

Cc1nc(Nc2[nH]nc3c2CN(C(=O)N[C@H](CN(C)C)c2ccccc2)C3(C)C)c2sccc2n1 [PF-3758309]
PAK family selectivity of inhibition (PAK-4): inhibit only PAK-4

CCCS(=O)(=O)Nc1ccc(F)c(C(=O)c2c[nH]c3ncc(-c4ccc(Cl)cc4)cc23)c1F [PLX4032]
inhibition of proliferation [1]: did not inhibit the proliferation
inhibition of proliferation [2]: did not inhibit the proliferation
inhibition of purified ACK1 (purified ACK1): highly effective in vitro inhibitor
